# Laboratory results reported in publication PMC5862592, “CDK8/19 inhibition induces premature G1/S transition and ATR-dependent cell death in prostate cancer cells” (Oncotarget, 2018).
# Like-named read-outs stand apart in the source and are kept apart here.
# Legend:
# Assay in all cases: biochemical
# Set-up in all cases: KINOMEscan active site-directed competition binding assay (DiscoveRx), 456 kinases, per cent of control at 300 nM
# Conditions in all cases: read-out: Percent of Control (%)
# EGFR(L747-T751del,Sins) = EGFR(L747-T751del,Sins) (Homo sapiens, UniProt P00533, DEL747-750/T751S)
# Procedure: (§1) Kinase selectivity of T-474 and T-418 was evaluated at 300 nmol/L using a panel of 456 kinases at DiscoveRx (KINOMEscan). The platform employs an active site-directed competition binding assay to quantitatively measure interactions between test compounds and kinases. […] In VCaP prostate cancer cells, treatment with T-474 or T-418 suppressed the phosphorylation of the known CDK8 substrate STAT1 at Ser727 both in the absence and in the presence of IFN-γ (Figure 1B), which stimulates CDK8-mediated STAT1 phosphorylation.
# CDKL5 = CDKL5 (Homo sapiens, UniProt O76039)
# Procedure: as §1
# MERTK = MERTK (Homo sapiens, UniProt Q12866)
# Procedure: as §1
# PRKX = PRKX (Homo sapiens, UniProt P51817)
# Procedure: as §1
# PRKCE = PRKCE (Homo sapiens, UniProt Q02156)
# Procedure: as §1
# WEE2 = WEE2 (Homo sapiens, UniProt P0C1S8)
# Procedure: as §1
# SRMS = SRMS (Homo sapiens, UniProt Q9H3Y6)
# Procedure: as §1
# PRKG1 = PRKG1 (Homo sapiens, UniProt Q13976)
# Sequence of PRKG1 (Q13976 whole entry): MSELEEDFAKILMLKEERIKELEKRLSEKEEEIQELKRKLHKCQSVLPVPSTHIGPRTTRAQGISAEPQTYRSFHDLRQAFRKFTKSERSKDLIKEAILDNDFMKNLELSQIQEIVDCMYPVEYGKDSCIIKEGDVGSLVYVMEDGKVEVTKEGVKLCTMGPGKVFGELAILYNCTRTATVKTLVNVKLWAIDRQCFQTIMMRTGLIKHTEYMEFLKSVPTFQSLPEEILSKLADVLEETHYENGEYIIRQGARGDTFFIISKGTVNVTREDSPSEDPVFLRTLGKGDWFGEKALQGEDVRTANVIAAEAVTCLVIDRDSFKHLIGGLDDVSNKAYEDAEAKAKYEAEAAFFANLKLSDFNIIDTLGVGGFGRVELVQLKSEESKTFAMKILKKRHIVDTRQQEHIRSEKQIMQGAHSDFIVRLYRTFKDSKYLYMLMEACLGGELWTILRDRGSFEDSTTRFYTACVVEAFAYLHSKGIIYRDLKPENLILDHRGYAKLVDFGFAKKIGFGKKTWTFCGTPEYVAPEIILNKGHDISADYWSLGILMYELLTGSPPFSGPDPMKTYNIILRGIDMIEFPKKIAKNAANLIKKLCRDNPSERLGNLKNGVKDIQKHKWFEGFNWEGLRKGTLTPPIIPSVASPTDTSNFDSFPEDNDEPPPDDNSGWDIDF
# Procedure: as §1
# BMX = BMX (Homo sapiens, UniProt P51813)
# Procedure: as §1
# ULK1 = ULK1 (Homo sapiens, UniProt O75385)
# Sequence of ULK1 (O75385 whole entry): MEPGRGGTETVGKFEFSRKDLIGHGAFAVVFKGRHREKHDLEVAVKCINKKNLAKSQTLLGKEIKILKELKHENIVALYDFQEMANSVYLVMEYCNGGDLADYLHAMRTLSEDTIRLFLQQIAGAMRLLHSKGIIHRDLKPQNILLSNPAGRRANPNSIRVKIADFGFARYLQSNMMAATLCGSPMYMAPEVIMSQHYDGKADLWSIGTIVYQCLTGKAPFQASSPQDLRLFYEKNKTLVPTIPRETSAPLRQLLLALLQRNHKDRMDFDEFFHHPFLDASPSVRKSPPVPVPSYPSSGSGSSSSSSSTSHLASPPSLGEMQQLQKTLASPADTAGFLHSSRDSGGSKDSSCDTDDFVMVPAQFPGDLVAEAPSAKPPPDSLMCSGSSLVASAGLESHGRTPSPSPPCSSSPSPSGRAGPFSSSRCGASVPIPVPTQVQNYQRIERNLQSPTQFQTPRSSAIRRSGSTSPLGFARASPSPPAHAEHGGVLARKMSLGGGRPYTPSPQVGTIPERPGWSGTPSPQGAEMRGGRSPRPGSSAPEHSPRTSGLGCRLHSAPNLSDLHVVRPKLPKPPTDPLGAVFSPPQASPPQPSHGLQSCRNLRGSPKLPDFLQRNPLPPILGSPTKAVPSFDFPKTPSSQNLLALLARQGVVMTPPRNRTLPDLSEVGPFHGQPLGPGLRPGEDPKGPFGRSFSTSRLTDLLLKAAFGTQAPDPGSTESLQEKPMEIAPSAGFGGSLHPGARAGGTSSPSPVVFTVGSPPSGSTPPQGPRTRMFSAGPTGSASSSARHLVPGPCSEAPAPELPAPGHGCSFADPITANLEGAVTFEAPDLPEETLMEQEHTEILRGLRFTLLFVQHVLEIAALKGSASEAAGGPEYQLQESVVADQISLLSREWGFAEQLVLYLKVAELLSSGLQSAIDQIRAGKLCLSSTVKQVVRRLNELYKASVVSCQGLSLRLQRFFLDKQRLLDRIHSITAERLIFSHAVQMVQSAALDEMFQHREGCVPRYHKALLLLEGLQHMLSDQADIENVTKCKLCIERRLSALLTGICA
# Procedure: as §1
# ERBB2 = ERBB2 (Homo sapiens, UniProt P04626)
# Procedure: as §1
# PDGFRA = PDGFRA (Homo sapiens, UniProt P16234)
# Sequence of PDGFRA (P16234 whole entry): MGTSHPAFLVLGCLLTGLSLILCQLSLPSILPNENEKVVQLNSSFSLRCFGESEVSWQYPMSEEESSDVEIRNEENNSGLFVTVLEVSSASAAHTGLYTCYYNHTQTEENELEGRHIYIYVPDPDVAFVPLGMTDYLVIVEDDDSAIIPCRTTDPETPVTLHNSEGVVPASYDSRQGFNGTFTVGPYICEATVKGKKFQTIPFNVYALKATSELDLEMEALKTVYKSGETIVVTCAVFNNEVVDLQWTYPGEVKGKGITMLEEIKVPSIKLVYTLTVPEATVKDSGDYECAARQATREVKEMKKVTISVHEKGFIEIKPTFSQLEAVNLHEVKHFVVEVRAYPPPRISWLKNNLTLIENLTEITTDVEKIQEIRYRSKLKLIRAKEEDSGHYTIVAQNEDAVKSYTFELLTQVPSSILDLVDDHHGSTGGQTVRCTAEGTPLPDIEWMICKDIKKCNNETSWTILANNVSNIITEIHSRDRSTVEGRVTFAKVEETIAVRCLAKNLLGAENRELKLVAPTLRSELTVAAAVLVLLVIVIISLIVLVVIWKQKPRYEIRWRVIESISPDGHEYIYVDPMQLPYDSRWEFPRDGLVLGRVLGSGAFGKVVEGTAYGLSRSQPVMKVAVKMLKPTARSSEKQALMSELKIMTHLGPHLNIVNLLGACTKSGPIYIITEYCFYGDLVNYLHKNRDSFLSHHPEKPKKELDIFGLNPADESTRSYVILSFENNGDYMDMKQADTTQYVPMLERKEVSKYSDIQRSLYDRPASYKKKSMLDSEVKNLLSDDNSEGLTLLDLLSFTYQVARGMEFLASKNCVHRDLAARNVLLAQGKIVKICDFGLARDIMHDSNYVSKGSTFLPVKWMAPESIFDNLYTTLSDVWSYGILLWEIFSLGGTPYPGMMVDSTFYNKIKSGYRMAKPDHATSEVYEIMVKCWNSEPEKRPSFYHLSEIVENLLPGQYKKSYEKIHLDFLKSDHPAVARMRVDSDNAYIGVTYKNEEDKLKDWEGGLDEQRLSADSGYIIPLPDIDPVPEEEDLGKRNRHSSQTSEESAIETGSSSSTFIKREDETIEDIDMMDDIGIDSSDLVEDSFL
# Procedure: as §1
# MUSK = MUSK (Homo sapiens, UniProt O15146)
# Sequence of MUSK (O15146 whole entry): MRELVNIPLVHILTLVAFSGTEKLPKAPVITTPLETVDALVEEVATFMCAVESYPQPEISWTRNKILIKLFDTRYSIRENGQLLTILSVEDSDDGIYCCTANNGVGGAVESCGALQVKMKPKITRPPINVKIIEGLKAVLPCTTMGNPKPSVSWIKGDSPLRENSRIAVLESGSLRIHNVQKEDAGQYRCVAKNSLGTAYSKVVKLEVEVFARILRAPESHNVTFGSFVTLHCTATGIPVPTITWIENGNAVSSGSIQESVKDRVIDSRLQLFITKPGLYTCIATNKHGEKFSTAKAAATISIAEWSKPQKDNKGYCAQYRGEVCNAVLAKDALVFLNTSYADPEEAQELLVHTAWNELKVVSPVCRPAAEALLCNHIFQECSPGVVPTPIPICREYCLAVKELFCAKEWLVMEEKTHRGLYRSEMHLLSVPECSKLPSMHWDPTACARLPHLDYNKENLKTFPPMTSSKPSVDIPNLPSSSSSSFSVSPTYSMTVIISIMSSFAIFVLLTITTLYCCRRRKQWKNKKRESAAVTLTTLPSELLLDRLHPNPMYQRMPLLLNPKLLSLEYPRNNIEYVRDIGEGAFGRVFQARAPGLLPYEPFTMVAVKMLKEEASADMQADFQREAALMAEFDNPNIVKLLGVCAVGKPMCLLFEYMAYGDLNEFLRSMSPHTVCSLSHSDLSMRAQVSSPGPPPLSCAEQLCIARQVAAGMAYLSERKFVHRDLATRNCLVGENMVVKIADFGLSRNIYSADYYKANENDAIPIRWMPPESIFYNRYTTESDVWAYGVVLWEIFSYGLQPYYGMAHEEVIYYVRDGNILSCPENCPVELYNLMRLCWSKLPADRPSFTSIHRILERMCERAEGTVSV
# Procedure: as §1
# ADCK4 = target: T1, ADCK4 (Homo sapiens, UniProt Q96D53)
# T1 construct: gene COQ8B
# Procedure: as §1
# NEK4 = NEK4 (Homo sapiens, UniProt P51957)
# Procedure: as §1
# FRK = FRK (Homo sapiens, UniProt P42685)
# Procedure: as §1
# CSNK1G2 = CSNK1G2 (Homo sapiens, UniProt P78368)
# Sequence of CSNK1G2 (P78368 whole entry): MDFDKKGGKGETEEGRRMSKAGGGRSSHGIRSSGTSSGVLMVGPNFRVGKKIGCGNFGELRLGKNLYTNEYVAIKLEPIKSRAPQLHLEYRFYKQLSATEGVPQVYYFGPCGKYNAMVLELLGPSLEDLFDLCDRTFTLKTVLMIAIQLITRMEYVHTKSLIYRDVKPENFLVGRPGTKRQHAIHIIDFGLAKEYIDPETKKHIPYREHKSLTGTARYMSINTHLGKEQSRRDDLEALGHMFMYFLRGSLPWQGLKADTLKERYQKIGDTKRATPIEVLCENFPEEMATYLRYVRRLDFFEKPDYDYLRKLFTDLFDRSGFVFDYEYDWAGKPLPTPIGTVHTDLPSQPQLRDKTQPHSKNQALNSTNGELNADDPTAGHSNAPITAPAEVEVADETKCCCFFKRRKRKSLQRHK
# Procedure: as §1
# AXL = AXL (Homo sapiens, UniProt P30530)
# Sequence of AXL (P30530 whole entry): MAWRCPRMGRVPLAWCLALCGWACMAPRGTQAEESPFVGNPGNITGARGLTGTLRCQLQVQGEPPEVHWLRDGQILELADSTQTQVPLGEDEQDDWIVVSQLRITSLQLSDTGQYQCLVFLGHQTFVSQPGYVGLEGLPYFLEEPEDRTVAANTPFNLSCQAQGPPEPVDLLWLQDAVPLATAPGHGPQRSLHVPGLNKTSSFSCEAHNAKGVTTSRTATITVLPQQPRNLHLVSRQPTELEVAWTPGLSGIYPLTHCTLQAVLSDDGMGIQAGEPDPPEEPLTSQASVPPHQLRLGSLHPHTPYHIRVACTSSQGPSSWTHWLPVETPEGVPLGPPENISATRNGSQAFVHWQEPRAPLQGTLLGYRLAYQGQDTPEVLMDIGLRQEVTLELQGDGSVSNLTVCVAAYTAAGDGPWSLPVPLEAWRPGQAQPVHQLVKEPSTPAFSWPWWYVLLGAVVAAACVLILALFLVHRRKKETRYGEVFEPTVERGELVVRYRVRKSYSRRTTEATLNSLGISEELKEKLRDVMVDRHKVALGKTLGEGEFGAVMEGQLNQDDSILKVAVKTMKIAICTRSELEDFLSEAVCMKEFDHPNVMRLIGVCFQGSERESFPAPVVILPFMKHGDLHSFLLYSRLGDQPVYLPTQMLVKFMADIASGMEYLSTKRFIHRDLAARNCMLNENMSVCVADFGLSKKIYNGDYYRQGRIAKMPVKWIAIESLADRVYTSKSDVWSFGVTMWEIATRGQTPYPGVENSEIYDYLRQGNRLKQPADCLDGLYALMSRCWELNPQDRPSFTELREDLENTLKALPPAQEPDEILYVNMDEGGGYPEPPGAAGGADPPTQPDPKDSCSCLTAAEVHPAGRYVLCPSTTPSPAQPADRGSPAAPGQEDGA
# Procedure: as §1
# RIOK2 = RIOK2 (Homo sapiens, UniProt Q9BVS4)
# Procedure: as §1
# DDR2 = DDR2 (Homo sapiens, UniProt Q16832)
# Procedure: as §1
# TIE2 = target: T2, TIE2 (Homo sapiens, UniProt Q02763)
# T2 construct: gene TEK
# Procedure: as §1
# CAMKK2 = CAMKK2 (Homo sapiens, UniProt Q96RR4)
# Procedure: as §1
smiles,measurement,setting,value
"O=C(/C=C/c1cnccc1-c1ccc(F)cc1)Nc1ccc(CCc2nnco2)cc1 [T-418, (2E)-3-(4-(4-fluorophenyl)pyridin-3-yl)-N-(4-(2-(1,3,4-oxadiazol-2-yl)ethyl)phenyl)acrylamide]",remaining binding at 0.3 µM,"EGFR(L747-T751del,Sins); sheet T-418",100%
same,remaining binding at 0.3 µM,CDKL5; sheet T-418,88%
same,remaining binding at 0.3 µM,MERTK; sheet T-418,100%
same,remaining binding at 0.3 µM,PRKX; sheet T-418,100%
same,remaining binding at 0.3 µM,PRKCE; sheet T-418,39%
same,remaining binding at 0.3 µM,WEE2; sheet T-418,100%
same,remaining binding at 0.3 µM,SRMS; sheet T-418,100%
same,remaining binding at 0.3 µM,PRKG1; sheet T-418,87%
same,remaining binding at 0.3 µM,BMX; sheet T-418,100%
same,remaining binding at 0.3 µM,ULK1; sheet T-418,41%
same,remaining binding at 0.3 µM,ERBB2; sheet T-418,52%
same,remaining binding at 0.3 µM,PDGFRA; sheet T-418,97%
same,remaining binding at 0.3 µM,MUSK; sheet T-418,100%
same,remaining binding at 0.3 µM,ADCK4; sheet T-418,91%
same,remaining binding at 0.3 µM,NEK4; sheet T-418,100%
same,remaining binding at 0.3 µM,FRK; sheet T-418,97%
same,remaining binding at 0.3 µM,CSNK1G2; sheet T-418,100%
same,remaining binding at 0.3 µM,AXL; sheet T-418,73%
same,remaining binding at 0.3 µM,RIOK2; sheet T-418,99%
same,remaining binding at 0.3 µM,DDR2; sheet T-418,100%
same,remaining binding at 0.3 µM,TIE2; sheet T-418,85%
same,remaining binding at 0.3 µM,CAMKK2; sheet T-418,100%
"Cc1ncccc1Oc1sc(C(N)=O)c2c1-c1c(cnn1C)CC2 [T-474, 1-methyl-8-((2-methylpyridin-3-yl)oxy)-4,5-dihydro-1H-thieno[3,4-g]indazole-6-carboxamide]",remaining binding at 0.3 µM,"EGFR(L747-T751del,Sins)",87%
same,remaining binding at 0.3 µM,CDKL5,100%
same,remaining binding at 0.3 µM,MERTK,100%
same,remaining binding at 0.3 µM,PRKX,100%
same,remaining binding at 0.3 µM,PRKCE,35%
same,remaining binding at 0.3 µM,WEE2,100%
same,remaining binding at 0.3 µM,SRMS,100%
same,remaining binding at 0.3 µM,PRKG1,100%
same,remaining binding at 0.3 µM,BMX,82%
same,remaining binding at 0.3 µM,ULK1,43%
same,remaining binding at 0.3 µM,ERBB2,47%
same,remaining binding at 0.3 µM,PDGFRA,96%
same,remaining binding at 0.3 µM,MUSK,100%
same,remaining binding at 0.3 µM,ADCK4,92%
same,remaining binding at 0.3 µM,NEK4,100%
same,remaining binding at 0.3 µM,FRK,97%
same,remaining binding at 0.3 µM,CSNK1G2,90%
same,remaining binding at 0.3 µM,AXL,83%
same,remaining binding at 0.3 µM,RIOK2,87%
same,remaining binding at 0.3 µM,DDR2,100%
same,remaining binding at 0.3 µM,TIE2,99%
same,remaining binding at 0.3 µM,CAMKK2,100%
